Consider one molecule from patent US6488564B1, “Brassiere protecting against eletrostatic field induced tissue degradation” (priority 1999, dated 2002).

In data set [1] the test system is murine mammary 16/C adenocarcinoma. In words: Example A: tumor regression by ADM with or without electrostatic field exposure in tumor-bearing mice. The data set is classed as in vivo, B6C3F1 mouse.
Description: The inventor's research protocol used the B6C3F1 mouse strain. […] For the inventor's studies, female mice were implanted with murine mammary 16/C adenocarcinoma, a commonly used tumor for cancer research. […] Approximately equal-sized tumor fragments were implanted in each mouse's axillary region through a puncture in the inguinal region. All test animals were approximately six weeks old, with a body weight of 17 to 20 grams at the time of implant. Also, food and water were provided ad libitum throughout each study, and all Groups were exposed to the same temperature and light conditions (lights on 12 hours and off 12 hours each day). The studies were blinded in both the assignment of the animals to the study groups, and in all tumor measurements.
In the first study noted here, four groups of 11 tumor bearing animal each were used. […] All of the animals were treated with 12 mg/kg ADM on day 4, and housed in cages containing an insulated metal screen suspended 25.4-mm above the animals.
GA: Control, treated with ADM and no electrostatic field exposure. The screen above animals was not charged.
GB: The screen was charged, and changed from positive to negative 15 kV DC once each 15 minutes.
GC: The screen was charged 15 kV DC, and changed from positive to negative once each 15 minutes. The animals were on a grounded wire grid cage floor (115 mm between the screen and floor).
GD: The screen was charged, and changed from positive to negative 15 kV once each 15 minutes. There was no ground plane nearby.
For another data set, the system named is B6C3F1 mouse. Kind of data set: Example B: animal deaths after ADM with or without electrostatic field exposure in tumor-bearing mice. The data set is classed as in vivo. Set-up: key to animal death: “X” indicates an animal death. The text has this:
Before methods for practicing the present invention are discussed, it will be helpful to note the results of examples of the inventor's studies with animals exposed to electrostatic fields, and to electrostatic fields and chemicals in combination. The total scope of the inventor's studies regarding electrostatic field influence inside a living body has involved over 350 tumor bearing rodents, however for the sake of brevity only four such studies will be noted here. The inventor's research protocol used the B6C3F1 mouse strain. This mouse is recognized by the National Cancer Institute as one Standard for chemotherapy research, and is one of the commonly accepted rodent species used in cancer studies. For the inventor's studies, female mice were implanted with murine mammary 16/C adenocarcinoma, a commonly used tumor for cancer research. The 16/C murine mammary tumor is particularly aggressive, and can normally grow from a barely visible, or even invisible, bump under the skin the day after the implant, to 10 to 20 percent of the animal's total body weight by day 14 (tumor size typically up to 4 grams). Approximately equal-sized tumor fragments were implanted in each mouse's axillary region through a puncture in the inguinal region. All test animals were approximately six weeks old, with a body weight of 17 to 20 grams at the time of implant. Also, food and water were provided ad libitum throughout each study, and all Groups were exposed to the same temperature and light conditions (lights on 12 hours and off 12 hours each day). The studies were blinded in both the assignment of the animals to the study groups, and in all tumor measurements.
After the tumors were allow to establish and grow for several days, the mice were treated with adriamycin (ADM), a commonly used chemotherapeutic agent, at dose levels based on their individual weight and known to be safe. Following this, the animals were blindly divided into the study groups. The growth rate of the tumors in a Control Group, without exposure to electrostatic fields, was compared to that of Test Groups that were under the influence of an electrostatic field. Tumor measurements were made by caliper using the prolate ellipsoid formula of the National Cancer Institute to convert the measurements into weight. This method allowed the tumor weight of each animal to be tracked throughout the study.
The mice in each Test Group were subjected to electrostatic fields with the use of special cages. When the application of electrostatic fields was required, special equipment was used to expose the desired animal groups to an electrostatic field with an intensity of approximately 79,000 V/m from a charged element insulated from the animals.
This study used three groups of 11 tumor-bearing animals each. There was not a statistical difference in the size of the animal tumors at the start of the study. All of the animals were treated twice with 8 mg/kg ADM given on days 3 and 5 (16 mg/kg total). In addition, Groups B&C were exposed to an electrostatic field for 4 hours following each injection.
GA: Control, treated with ADM and no electrostatic field exposure.
GB: ADM plus exposure to a negative 15 kV DC charged screen 25.4 mm above, with a grounded grid below, the animals (90 mm between screen and grid).
GC: ADM plus exposure to 15 minute cycles of positive then negative 15 kV DC on a screen 25.4 mm above, with a grounded grid below, the animals (90 mm between screen and grid).
In this study the inventor inadvertently allowed the applied electrostatic fields in Groups B and C to increase the affect of the ADM to a lethal level. […] The electrostatic fields Groups B and C were exposed to increased the reaction of body cells to the ADM, creating the effect of a lethal overdose. […]

In the case of `COc1cccc2c1C(=O)c1c(O)c3c(c(O)c1C2=O)C[C@@](O)(C(=O)CO)C[C@@H]3O[C@H]1C[C@H](N)[C@H](O)[C@H](C)O1` [ADM, adriamycin], the tumor wt. loss in data set [1] (GA: 12 mg/kg ADM on day 4, no electrostatic field exposure (screen not charged)) is −24%; in data set [1] (GB: 12 mg/kg ADM on day 4 plus screen changed positive to negative 15 kV DC each 15 minutes, grounded wire grid below cage), −86%; in data set [1] (GC: 12 mg/kg ADM on day 4 plus screen 15 kV DC changed positive to negative each 15 minutes, animals on grounded wire grid cage floor), −80%; in data set [1] (GD: 12 mg/kg ADM on day 4 plus screen changed positive to negative 15 kV each 15 minutes, no ground plane nearby), −75%. Further, the ill affect entry with B6C3F1 mouse (GA: 8 mg/kg ADM days 3 and 5, without exposure to a static field) is reported as “no ill affect until day 30”. Also, the animal death entry with B6C3F1 mouse (Group A: 8 mg/kg ADM days 3 and 5, no field, day 30 (death from tumor, not ADM)) was “X”; in the data set with B6C3F1 mouse (Group B: 8 mg/kg ADM days 3 and 5 plus negative 15 kV DC field 4 hours after each injection, day 12) it was “XXX”; in the data set with B6C3F1 mouse (Group B: 8 mg/kg ADM days 3 and 5 plus negative 15 kV DC field 4 hours after each injection, day 18), “X”; in the data set on B6C3F1 mouse (Group B: 8 mg/kg ADM days 3 and 5 plus negative 15 kV DC field 4 hours after each injection, day 19), “X”; in the data set with B6C3F1 mouse (Group B: 8 mg/kg ADM days 3 and 5 plus negative 15 kV DC field 4 hours after each injection, day 22), “X”; with B6C3F1 mouse (Group B: 8 mg/kg ADM days 3 and 5 plus negative 15 kV DC field 4 hours after each injection, day 28), “X”. For the same molecule, the animal death result in the data set with B6C3F1 mouse (Group C: 8 mg/kg ADM days 3 and 5 plus 15 minute cycles of positive then negative 15 kV DC field 4 hours after each injection, day 11) is “X”; in the data set with B6C3F1 mouse (Group C: 8 mg/kg ADM days 3 and 5 plus 15 minute cycles of positive then negative 15 kV DC field 4 hours after each injection, day 12) it was “XXXXX”. In addition, the “necropsy of the dead animals” value in the data set with B6C3F1 mouse (Groups B and C: 8 mg/kg ADM days 3 and 5 plus electrostatic field) is “obvious heart enlargement”.
